Structures can show the parent of a compound that is named as a salt. Where two headings read alike, the source gives them in different places.
Tested on: Acinetobacter baumannii ATCC17961
Test: Antimicrobial susceptibility testing: 90% growth inhibitory concentration (IC90) determination in Iso-Sensitest broth, OD600 growth
Assay type: cell-based
Procedure, shortened: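 Growth inhibition is calculated during the logarithmic phase from OD600 readings taken every 20 minutes across 16 h at 35±2° C. Bacteria at ~5×10^(5) CFU/ml face twofold dilution series (e.g. 50 to 0.097 μM final).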

[1] = Acinetobacter baumannii, ATCC17961, 16 h, read-out: A. baumannii ATCC 17961 IC90 (uM), strain ATCC 17961, OD600 growth over 16 h
[2] = Acinetobacter baumannii, ATCC17961, 16 h, strain ATCC 17961, OD600 growth over 16 h, read-out: A. baumannii ATCC 17961 IC90

Row | SMILES | IC90 [1] [µM] | other results
1 | NC1CCC(NC(=O)N2CCN(C(=O)c3ccc(Nc4nccn5c(-c6c[nH]nc6C(F)(F)F)cnc45)cc3Cl)CC2)CC1 (stereo not shown) [Example 291, N-(4-aminocyclohexyl)-4-[2-chloro-4-[[3-[3-(trifluoromethyl)-1H-pyrazol-4-yl]imidazo[1,2-a]pyrazin-8-yl]amino]benzoyl] piperazine-1-carboxamide formate] | – | IC90 (strain ATCC 17961, OD600 growth over 16 h, read-out: A. baumannii ATCC 17961 IC90): 0.332 µM
2 | CCc1cc(Nc2nccn3c(-c4c[nH]nc4C(F)(F)F)cnc23)ccc1C(=O)NCCNC(=O)CCCN [Example 217, N-[2-(4-aminobutanoylamino)ethyl]-2-ethyl-4-[[3-[3-(trifluoromethyl)-1H-pyrazol-4-yl]imidazo[1,2-a]pyrazin-8-yl]amino]benzamide formate] | 0.543 | –
3 | CNC(=O)c1ccc(Nc2nccn3c(-c4cn(C5CCN(Cc6ccccc6)CC5)nc4C(F)(F)F)cnc23)cc1Cl [Example 592, 4-((3-(1-(1-benzylpiperidin-4-yl)-3-(trifluoromethyl)-1H-pyrazol-4-yl)imidazo[1,2-a]pyrazin-8-yl)amino)-2-chloro-N-methylbenzamide formate] | 0.402 | –
4 | NCCNC(=O)CNC(=O)c1ccc(Nc2nccn3c(-c4cn(CCF)nc4C(F)(F)F)cnc23)cc1Cl [Example 8, N-[2-(2-aminoethylamino)-2-oxoethyl]-2-chloro-4-[[3-[1-(2-fluoroethyl)-3-(trifluoromethyl)pyrazol-4-yl]imidazo[1,2-a]pyrazin-8-yl]amino]benzamide formate] | – | IC90 [2]: 0.484 µM
5 | CCc1cc(Nc2nccn3c(-c4cn(CC(O)CC)nc4C(F)(F)F)cnc23)ccc1C(=O)NCCOCCN (stereo not shown) [Example 268, N-[2-(2-aminoethoxy)ethyl]-2-ethyl-4-[[3-[1-(2-hydroxybutyl)-3-(trifluoromethyl)pyrazol-4-yl]imidazo[1,2-a]pyrazin-8-yl]amino]benzamide] | – | IC90 [2]: 0.346 µM
6 | CCc1cc(Nc2nccn3c(-c4cn(CC#N)nc4C(F)(F)F)cnc23)ccc1C(=O)NCCNC(=O)CCN [Example 566, N-(2-(3-aminopropanamido)ethyl)-4-((3-(1-(cyanomethyl)-3-(trifluoromethyl)-1H-pyrazol-4-yl)imidazo[1,2-a]pyrazin-8-yl)amino)-2-ethylbenzamide formate] | 0.477 | –
7 | Cc1ccc(Cn2cc(-c3cnc4c(Nc5ccc(C(=O)N6CCNCC6)c(Cl)c5)nccn34)c(C(F)(F)F)n2)nn1 [Example 163, [2-chloro-4-[[3-[1-[(6-methylpyridazin-3-yl)methyl]-3-(trifluoromethyl)pyrazol-4-yl]imidazo[1,2-a]pyrazin-8-yl]amino]phenyl]-piperazin-1-ylmethanone formate] | 1.27 | –
8 | CCc1cc(Nc2nccn3c(-c4cn(CC#N)nc4C(F)(F)F)cnc23)ccc1C(=O)NCC(=O)N1CC2(CC(N)C2)C1 [Example 508, N-[2-(6-amino-2-azaspiro[3.3]heptan-2-yl)-2-oxo-ethyl]-4-[[3-[1-(cyanomethyl)-3-(trifluoromethyl)pyrazol-4-yl]imidazo[1,2-a]pyrazin-8-yl]amino]-2-ethyl-benzamide formate] | 0.198 | –
9 | Cc1cc(Nc2nccn3c(-c4c[nH]nc4C(F)(F)F)cnc23)ccc1C(=O)N1CCNCC1 [Example 480, [2-methyl-4-[[3-[3-(trifluoromethyl)-1H-pyrazol-4-yl]imidazo[1,2-a]pyrazin-8-yl]amino]phenyl]-piperazin-1-ylmethanone] | – | IC90 [2]: 1.84 µM
10 | C[C@@H](NC(=O)c1ccc(Nc2nccn3c(-c4c[nH]nc4C(F)(F)F)cnc23)cc1Cl)C(=O)N[C@H]1CCNC1 [Example 96, 2-chloro-N-[(2R)-1-oxo-1-[[(3S)-pyrrolidin-3-yl]amino]propan-2-yl]-4-[[3-[3-(trifluoromethyl)-1H-pyrazol-4-yl]imidazo[1,2-a]pyrazin-8-yl]amino]benzamide formate] | 1.63 | –
11 | CCc1cc(Nc2nccn3c(-c4c[nH]nc4C(F)(F)F)cnc23)ccc1C(=O)NCCNC(=O)[C@H](C)N [Example 718, (S)-N-(2-(2-aminopropanamido)ethyl)-2-ethyl-4-((3-(3-(trifluoromethyl)-1H-pyrazol-4-yl)imidazo [1,2-a]pyrazin-8-yl)amino)benzamide formate] | 0.435 | –
12 | Cc1cc(Nc2nccn3c(-c4cn(C)nc4C(F)(F)F)cnc23)ccc1C(=O)N1CCN(C(=O)[C@H]2CCNC[C@H]2O)CC1 [Example 475, formic acid; [4-[(3S,4S)-3-hydroxypiperidine-4-carbonyl]piperazin-1-yl]-[2-methyl-4-[[3-[1-methyl-3-(trifluoromethyl)pyrazol-4-yl]imidazo[1,2-a]pyrazin-8-yl]amino]phenyl]methanone] | 1.64 | –
13 | CCc1cc(Nc2nccn3c(-c4c[nH]nc4C(F)(F)F)cnc23)ccc1C(=O)NCCCNC(=O)[C@H]1CC[C@@H](N)C1 [Example 535, N-(3-((1S,3R)-3-aminocyclopentane-1-carboxamido)propyl)-2-ethyl-4-((3-(3-(trifluoromethyl)-1H-pyrazol-4-yl)imidazo[1,2-a]pyrazin-8-yl)amino)benzamide formate] | 0.247 | –
14 | CCc1cc(Nc2nccn3c(-c4cn(CCCO)nc4C(F)(F)F)cnc23)ccc1C(=O)NCCOCCN [Example 312, N-[2-(2-aminoethoxy)ethyl]-2-ethyl-4-[[3-[1-(3-hydroxypropyl)-3-(trifluoromethyl)pyrazol-4-yl]imidazo[1,2-a]pyrazin-8-yl]amino]benzamide formate] | 0.839 | –
15 | O=C(N[C@@H]1CNC[C@H]1O)N1CCN(C(=O)c2ccc(Nc3nccn4c(-c5c[nH]nc5C(F)(F)F)cnc34)cc2Cl)CC1 [Example 441, 4-[2-chloro-4-[[3-[3-(trifluoromethyl)-1H-pyrazol-4-yl]imidazo[1,2-a]pyrazin-8-yl]amino]benzoyl]-N-[(3R,4R)-4-hydroxypyrrolidin-3-yl]piperazine-1-carboxamide formate] | 0.617 | –
16 | O=C(N[C@H]1CCNC1)c1ccc(Nc2nccn3c(-c4c[nH]nc4C(F)(F)F)cnc23)cc1Cl [Example 378, 2-chloro-N-[(3S)-pyrrolidin-3-yl]-4-[[3-[3-(trifluoromethyl)-1H-pyrazol-4-yl]imidazo[1,2-a]pyrazin-8-yl]amino]benzamide] | – | IC90 [2]: 0.562 µM
17 | CCc1cc(Nc2nccn3c(-c4cn(CC(F)F)nc4C(F)(F)F)cnc23)ccc1C(=O)NC1CCCNC1 (stereo not shown) [Example 563, 4-((3-(1-(2,2-difluoroethyl)-3-(trifluoromethyl)-1H-pyrazol-4-yl)imidazo[1,2-a]pyrazin-8-yl)amino)-2-ethyl-N-(piperidin-3-yl)benzamide formate] | 0.575 | –
18 | CNCC1(O)CCN(C(=O)c2ccc(Nc3nccn4c(-c5cn(CC#N)nc5C(F)(F)F)cnc34)cc2Cl)CC1 [Example 14, 2-[4-[8-[3-chloro-4-[4-hydroxy-4-(methylaminomethyl)piperidine-1-carbonyl]anilino]imidazo[1,2-a]pyrazin-3-yl]-3-(trifluoromethyl)pyrazol-1-yl]acetonitrile formate] | 0.141 | –
19 | CCc1cc(Nc2nccn3c(-c4cn(CC#N)nc4C(F)(F)F)cnc23)ccc1C(=O)NCC(=O)N1CC[C@@H](N)C1 [Example 504, N-[2-[(3R)-3-aminopyrrolidin-1-yl]-2-oxo-ethyl]-4-[[3-[1-(cyanomethyl)-3-(trifluoromethyl)pyrazol-4-yl]imidazo[1,2-a]pyrazin-8-yl]amino]-2-ethyl-benzamide formate] | – | IC90 [2]: 0.238 µM

Source: patent publication US20230203043A1, “NOVEL IMIDAZOPYRAZINE DERIVATIVES” (Hoffmann-La Roche Inc., priority 2020, published 2023)
